Results from ChEMBL document CHEMBL1201862, “PubChem BioAssay data set” (2004).
Active and inactive are the calls of the source.

Assays:
[1] = molecular target: Beta-2 adrenergic receptor (Homo sapiens, UniProt P07550); assay: ADRB2 activation measured by internalization – cell-based, FAP fluorogen, flow cytometry, cherry pick 1, dose response (AID 588763); assay type: functional
[2] = decrease of insulin promoter-GFP reporter – imaging, high-content screening, mouse beta cells (AID 1628); assay type: functional; details: MIN6
[3] = MIN6 cell viability loss – mouse insulinoma, cytotoxicity control, dose response (AID 2122); assay type: functional;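 note: confirmatory high-throughput counterscreen run to flag cytotoxic compounds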
[4] = microbe, parasite or virus in culture; assay type: functional; details: Mycobacterium tuberculosis
[5] = molecular target: FAD-linked sulfhydryl oxidase ALR (Homo sapiens, UniProt P55789); assay: ALR-catalysed DTT oxidation blockers – biochemical, H2O2 detection, luminescence, cherry-pick, dose response (AID 493248)
[6] = molecular target: 26S proteasome non-ATPase regulatory subunit 14 (Homo sapiens, UniProt O00487); assay: inhibition of proteasome subunit RPN11 – biochemical, fluorescence polarization, uHTS hits, confirmation (AID 602368); assay type: functional
26S proteasome non-ATPase regulatory subunit 14, sequence (O00487 whole entry): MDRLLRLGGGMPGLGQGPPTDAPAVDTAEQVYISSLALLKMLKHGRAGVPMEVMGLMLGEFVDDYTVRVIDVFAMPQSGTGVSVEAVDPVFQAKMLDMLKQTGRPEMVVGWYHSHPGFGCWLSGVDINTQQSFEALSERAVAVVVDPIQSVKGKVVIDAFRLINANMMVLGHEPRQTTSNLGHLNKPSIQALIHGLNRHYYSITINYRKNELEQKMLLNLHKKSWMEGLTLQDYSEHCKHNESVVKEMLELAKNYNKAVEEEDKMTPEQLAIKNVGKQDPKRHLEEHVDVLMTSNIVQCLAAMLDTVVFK

[7] = molecular target: 72 kDa type IV collagenase (Homo sapiens, UniProt P08253); assay: Dose Response validation of uHTS RPN11 inhibitor hits using a MMP-2 Fluorescence assay.; assay type: functional
72 kDa type IV collagenase, sequence (P08253 whole entry): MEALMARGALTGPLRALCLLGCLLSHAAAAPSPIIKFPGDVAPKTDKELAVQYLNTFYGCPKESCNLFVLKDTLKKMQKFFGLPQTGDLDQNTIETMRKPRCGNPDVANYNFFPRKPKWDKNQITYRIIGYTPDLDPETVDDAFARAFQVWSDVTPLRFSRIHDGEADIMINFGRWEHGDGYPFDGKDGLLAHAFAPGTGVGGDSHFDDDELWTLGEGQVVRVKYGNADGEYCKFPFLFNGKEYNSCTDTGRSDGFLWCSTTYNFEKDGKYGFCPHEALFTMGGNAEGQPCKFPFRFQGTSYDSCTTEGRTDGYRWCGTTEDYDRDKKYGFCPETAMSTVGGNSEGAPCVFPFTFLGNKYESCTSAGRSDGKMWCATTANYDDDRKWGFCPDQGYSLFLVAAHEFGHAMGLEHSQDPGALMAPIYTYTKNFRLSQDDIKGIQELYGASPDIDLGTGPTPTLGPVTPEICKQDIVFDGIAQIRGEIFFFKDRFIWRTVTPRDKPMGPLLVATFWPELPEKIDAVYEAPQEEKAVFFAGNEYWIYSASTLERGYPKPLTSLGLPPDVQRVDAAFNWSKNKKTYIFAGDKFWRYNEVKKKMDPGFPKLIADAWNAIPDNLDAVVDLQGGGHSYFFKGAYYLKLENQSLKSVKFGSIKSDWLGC

Prothrombin = Prothrombin (Bos taurus, UniProt P00735); assay: thrombin protease inhibitors – biochemical, fluorescence polarization, uHTS hits, dose response (AID 602369); assay type: functional
Cytochrome P450 3A4 = Cytochrome P450 3A4 (Homo sapiens, UniProt P08684); details: Potency;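 note: confirmatory qHTS run detecting inhibitors and substrates of CYP3A4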
[8] = molecular target: Voltage-gated inwardly rectifying potassium channel KCNH2 (Homo sapiens, UniProt Q12809); details: Potency;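 note: confirmatory quantitative high-throughput screen measuring inhibition of hERG channel activity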
Voltage-gated inwardly rectifying potassium channel KCNH2, sequence (Q12809 whole entry): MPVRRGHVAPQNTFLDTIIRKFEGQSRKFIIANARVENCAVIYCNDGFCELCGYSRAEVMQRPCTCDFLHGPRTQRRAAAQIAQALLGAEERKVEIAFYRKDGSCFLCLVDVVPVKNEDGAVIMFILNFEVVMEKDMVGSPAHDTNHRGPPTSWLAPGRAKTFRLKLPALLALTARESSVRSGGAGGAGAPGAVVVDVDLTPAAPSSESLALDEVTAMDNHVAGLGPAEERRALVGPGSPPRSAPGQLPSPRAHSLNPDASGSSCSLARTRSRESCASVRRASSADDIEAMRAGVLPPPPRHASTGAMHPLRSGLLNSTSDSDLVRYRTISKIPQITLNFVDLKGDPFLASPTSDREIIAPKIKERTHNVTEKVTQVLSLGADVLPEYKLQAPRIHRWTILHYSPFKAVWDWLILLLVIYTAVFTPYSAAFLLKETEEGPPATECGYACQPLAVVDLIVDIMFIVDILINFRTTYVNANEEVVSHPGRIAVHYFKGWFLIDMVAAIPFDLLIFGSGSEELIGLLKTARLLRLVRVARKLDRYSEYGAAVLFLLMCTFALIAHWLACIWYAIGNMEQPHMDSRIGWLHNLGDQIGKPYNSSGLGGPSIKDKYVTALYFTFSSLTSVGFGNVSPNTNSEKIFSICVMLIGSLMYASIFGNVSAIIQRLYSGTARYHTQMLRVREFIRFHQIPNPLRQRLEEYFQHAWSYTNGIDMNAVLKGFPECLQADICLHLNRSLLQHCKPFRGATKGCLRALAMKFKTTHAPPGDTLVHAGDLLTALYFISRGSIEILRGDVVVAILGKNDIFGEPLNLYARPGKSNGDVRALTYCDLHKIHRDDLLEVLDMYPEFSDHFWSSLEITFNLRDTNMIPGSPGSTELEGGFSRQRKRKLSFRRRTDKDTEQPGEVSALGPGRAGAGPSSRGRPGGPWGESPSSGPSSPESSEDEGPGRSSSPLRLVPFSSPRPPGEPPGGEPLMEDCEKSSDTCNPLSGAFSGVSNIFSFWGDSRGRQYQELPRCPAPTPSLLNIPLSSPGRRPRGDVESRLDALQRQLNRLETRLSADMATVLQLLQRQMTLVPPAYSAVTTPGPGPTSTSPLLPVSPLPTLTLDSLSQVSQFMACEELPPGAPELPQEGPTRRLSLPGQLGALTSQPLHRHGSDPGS

[9] = luciferase reporter signal suppression in cells – H4 neuroglioma cells, luminescence, dose response (AID 1990); assay type: functional, cell-based
[10] = Luminescence Cell-Based Dose Response HTS to Identify Inhibitors of 5'UTR Stem-Loop Driven Prion Protein mRNA Translation in H4 Neuroglioblastoma Cells. [Related pubchem assays: 1827 (Project Summary), 1813 (Primary HTS)]; assay type: functional
[11] = alpha-synuclein stem-loop luciferase translation blockers – H4 neuroglioma cells, luminescence, confirmation (AID 1988); assay type: functional, cell-based
[12] = molecular target: T1, E3 ubiquitin-protein ligase XIAP (Homo sapiens, UniProt P98170); assay: Counter Screen using XIAP-Bir3 for Chemical Antagonists of Bir1/2 domains of IAP-family anti-apoptotic proteins. [Related pubchem assays (depositor defined):AID1018, AID1449, AID1514, AID1638, AID1749, AID1750, AID488957, AID488963]
T1 sequence (P98170 whole entry): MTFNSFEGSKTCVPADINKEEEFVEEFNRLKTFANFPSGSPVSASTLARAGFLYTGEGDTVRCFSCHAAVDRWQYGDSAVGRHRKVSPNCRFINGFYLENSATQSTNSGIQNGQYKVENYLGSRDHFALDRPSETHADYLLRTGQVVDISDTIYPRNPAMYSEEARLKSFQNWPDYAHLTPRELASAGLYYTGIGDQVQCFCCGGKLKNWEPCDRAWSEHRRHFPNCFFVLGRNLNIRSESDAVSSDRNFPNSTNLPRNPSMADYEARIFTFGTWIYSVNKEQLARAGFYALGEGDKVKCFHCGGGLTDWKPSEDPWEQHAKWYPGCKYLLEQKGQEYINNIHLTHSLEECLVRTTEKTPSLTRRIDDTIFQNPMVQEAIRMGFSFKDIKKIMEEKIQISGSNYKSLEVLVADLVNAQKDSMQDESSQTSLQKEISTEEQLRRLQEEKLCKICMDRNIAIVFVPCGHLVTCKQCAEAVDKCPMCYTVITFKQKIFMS

[13] = molecular target: T1, E3 ubiquitin-protein ligase XIAP; assay: small molecules displacing peptide from XIAP – biochemical, IAP family, fluorescence polarization (AID 1018); assay type: functional
[14] = molecular target: T2, Microphthalmia-associated transcription factor (Homo sapiens, UniProt O75030); assay: reducers of TRPM1 reporter luminescence, concentration series – cell-based, SK-MEL-5, cherry-picked, set 3, MITF inhibitor project, dose response (AID 493073); assay type: functional;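 note: SK-MEL-5 melanoma cells with luciferase driven by the MITF target TRPM1 promoter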
T2 sequence (O75030 whole entry): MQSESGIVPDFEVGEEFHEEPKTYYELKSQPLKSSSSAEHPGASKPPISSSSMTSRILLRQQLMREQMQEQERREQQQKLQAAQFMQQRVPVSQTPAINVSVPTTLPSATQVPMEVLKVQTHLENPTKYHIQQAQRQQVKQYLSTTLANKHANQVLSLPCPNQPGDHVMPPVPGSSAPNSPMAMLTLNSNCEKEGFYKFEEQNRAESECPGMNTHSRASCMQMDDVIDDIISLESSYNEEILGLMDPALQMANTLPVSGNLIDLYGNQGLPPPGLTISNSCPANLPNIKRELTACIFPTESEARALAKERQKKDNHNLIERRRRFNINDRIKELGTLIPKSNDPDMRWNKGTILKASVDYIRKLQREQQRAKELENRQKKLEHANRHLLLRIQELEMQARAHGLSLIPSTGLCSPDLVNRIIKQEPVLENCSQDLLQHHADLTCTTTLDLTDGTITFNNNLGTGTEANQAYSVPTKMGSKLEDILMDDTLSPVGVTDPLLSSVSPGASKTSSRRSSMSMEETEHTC

[15] = HEK-293T cell viability reduction – luminescence, B-cell screen hits, cytotoxicity control for BCR NF-kB inhibitor project, dose response (AID 489021); assay type: functional, cell-based;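 note: HEK-293T cells carrying an NF-kB luciferase reporter; cells exposed to compound for about 14 hours before viability readout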
HEK293 = assay: HEK293T cell viability loss, resazurin readout – resazurin fluorescence, cytotoxicity control for NF-kB activator project, SAR follow-up (AID 493251); assay type: functional, cell-based; details: Homo sapiens
[16] = molecular target: Delta-type opioid receptor (Homo sapiens, UniProt P41143); assay: Counterscreen for agonists of heterodimerization of the mu 1 (OPRM1) and delta 1 (OPRD1) opioid receptors: Luminescence-based cell-based high throughput dose response assay to identify agonists of OPRD1 homodimerization. [Related pubchem assays (depositor defined):AID504326, AID504355, AID504692, AID504904, AID504905]; assay type: functional
Delta-type opioid receptor, sequence (P41143 whole entry): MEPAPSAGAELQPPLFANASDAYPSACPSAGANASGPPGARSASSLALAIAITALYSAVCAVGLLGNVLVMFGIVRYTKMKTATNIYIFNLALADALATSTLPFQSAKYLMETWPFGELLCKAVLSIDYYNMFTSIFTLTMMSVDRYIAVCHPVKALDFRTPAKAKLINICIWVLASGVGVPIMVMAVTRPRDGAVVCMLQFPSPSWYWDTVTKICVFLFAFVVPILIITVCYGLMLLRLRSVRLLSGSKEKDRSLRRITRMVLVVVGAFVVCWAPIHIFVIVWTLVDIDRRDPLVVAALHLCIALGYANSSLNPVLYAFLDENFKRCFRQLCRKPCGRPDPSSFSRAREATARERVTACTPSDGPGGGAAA

Mu-type opioid receptor = Mu-type opioid receptor (Homo sapiens, UniProt P35372); assay: Counterscreen for agonists of heterodimerization of the mu 1 (OPRM1) and delta 1 (OPRD1) opioid receptors: Luminescence-based cell-based high throughput dose response assay to identify agonists of OPRM1 homodimerization.; assay type: functional;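 note: U2OS cells expressing OPRM1 and beta-arrestin as split beta-galactosidase partners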
Mu-type opioid receptor, sequence (P35372 whole entry): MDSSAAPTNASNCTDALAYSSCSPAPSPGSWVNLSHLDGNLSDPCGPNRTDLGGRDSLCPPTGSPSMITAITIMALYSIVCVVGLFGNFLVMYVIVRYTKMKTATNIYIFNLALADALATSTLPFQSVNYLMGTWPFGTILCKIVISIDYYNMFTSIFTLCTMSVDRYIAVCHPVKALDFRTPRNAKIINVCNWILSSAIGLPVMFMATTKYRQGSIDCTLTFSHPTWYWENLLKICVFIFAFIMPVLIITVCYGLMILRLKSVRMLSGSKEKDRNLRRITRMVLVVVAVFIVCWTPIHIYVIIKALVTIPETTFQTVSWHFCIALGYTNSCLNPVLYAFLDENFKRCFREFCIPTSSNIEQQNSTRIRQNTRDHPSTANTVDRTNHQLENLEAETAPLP

[17] = molecular target: 5-hydroxytryptamine receptor 5A (Homo sapiens, UniProt P47898); assay: Counterscreen for agonists of OPRM1-OPRD1 heterodimerization: luminescence-based cell-based high throughput dose response assay to identify agonists of 5-hydroxytryptamine (serotonin) 5A receptor (HTR5A). [Related pubchem assays (depositor defined):AID504326, AID504355, AID504692, AID504904, AID504905]; assay type: functional
5-hydroxytryptamine receptor 5A, sequence (P47898 whole entry, the tested form may be a part): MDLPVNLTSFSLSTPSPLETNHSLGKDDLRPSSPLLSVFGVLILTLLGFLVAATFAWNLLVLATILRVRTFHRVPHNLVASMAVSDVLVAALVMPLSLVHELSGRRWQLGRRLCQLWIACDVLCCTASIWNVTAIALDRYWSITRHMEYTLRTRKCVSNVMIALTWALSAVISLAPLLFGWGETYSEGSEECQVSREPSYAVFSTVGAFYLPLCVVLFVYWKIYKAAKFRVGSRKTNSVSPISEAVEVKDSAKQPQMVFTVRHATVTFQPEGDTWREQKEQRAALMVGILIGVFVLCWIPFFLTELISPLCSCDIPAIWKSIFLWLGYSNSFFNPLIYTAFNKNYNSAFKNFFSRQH

[18] = molecular target: Carboxy-terminal domain RNA polymerase II polypeptide A small phosphatase 1 (Homo sapiens, UniProt Q9GZU7); assay: CTDSP1 inhibitors, concentration-response, biochemical, absorbance readout, ultra-high-throughput screen actives (AID 540297); assay type: functional
Carboxy-terminal domain RNA polymerase II polypeptide A small phosphatase 1, sequence (Q9GZU7 whole entry, the tested form may be a part): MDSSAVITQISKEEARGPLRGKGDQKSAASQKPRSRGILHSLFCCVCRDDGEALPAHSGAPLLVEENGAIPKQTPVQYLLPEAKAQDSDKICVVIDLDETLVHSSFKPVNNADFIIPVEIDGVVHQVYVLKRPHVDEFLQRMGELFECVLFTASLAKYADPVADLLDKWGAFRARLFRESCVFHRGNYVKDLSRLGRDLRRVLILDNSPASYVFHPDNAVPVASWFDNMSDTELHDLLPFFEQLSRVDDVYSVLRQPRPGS

[19] = NIH-3T3 fibroblast cytotoxicity, dose response, cytotoxicity control, cell-based, fluorescence, Alamar Blue, secondary assay (AID 2327); assay type: functional;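 note: NIH-3T3 mouse fibroblasts cultured with fluconazole at 8 µg/mL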
[20] = fluconazole-exposed Candida albicans growth modulators – fluorescence, retest, confirmation (AID 2467); assay type: functional, cell-based
[21] = Trypanosoma cruzi growth suppression in host cells – NIH3T3 host cells, beta-gal luminescence, confirmation (AID 2044); assay type: functional, cell-based;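 note: intracellular parasites grown in NIH/3T3 mouse fibroblasts as host cells; luminescent beta-galactosidase reporter signal from transgenic T. cruzi replicating inside host cells; inhibitors lower the luminescence signal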
[22] = NIH3T3 cell viability loss – ATP luminescence, mouse fibroblasts, counter-screen, dose response (AID 2010); assay type: functional, cell-based;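 note: cells exposed to compound for about 90 hours before reading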
[23] = molecular target: T3, Short transient receptor potential channel 4 (Mus musculus, UniProt Q9QUQ5); assay: calcium entry via TRPC4 opening agents – cell-based, HEK293 TRPC4/mu-opioid, Fluo-4 calcium, dose response (AID 434937); assay type: functional
T3 sequence (Q9QUQ5 whole entry): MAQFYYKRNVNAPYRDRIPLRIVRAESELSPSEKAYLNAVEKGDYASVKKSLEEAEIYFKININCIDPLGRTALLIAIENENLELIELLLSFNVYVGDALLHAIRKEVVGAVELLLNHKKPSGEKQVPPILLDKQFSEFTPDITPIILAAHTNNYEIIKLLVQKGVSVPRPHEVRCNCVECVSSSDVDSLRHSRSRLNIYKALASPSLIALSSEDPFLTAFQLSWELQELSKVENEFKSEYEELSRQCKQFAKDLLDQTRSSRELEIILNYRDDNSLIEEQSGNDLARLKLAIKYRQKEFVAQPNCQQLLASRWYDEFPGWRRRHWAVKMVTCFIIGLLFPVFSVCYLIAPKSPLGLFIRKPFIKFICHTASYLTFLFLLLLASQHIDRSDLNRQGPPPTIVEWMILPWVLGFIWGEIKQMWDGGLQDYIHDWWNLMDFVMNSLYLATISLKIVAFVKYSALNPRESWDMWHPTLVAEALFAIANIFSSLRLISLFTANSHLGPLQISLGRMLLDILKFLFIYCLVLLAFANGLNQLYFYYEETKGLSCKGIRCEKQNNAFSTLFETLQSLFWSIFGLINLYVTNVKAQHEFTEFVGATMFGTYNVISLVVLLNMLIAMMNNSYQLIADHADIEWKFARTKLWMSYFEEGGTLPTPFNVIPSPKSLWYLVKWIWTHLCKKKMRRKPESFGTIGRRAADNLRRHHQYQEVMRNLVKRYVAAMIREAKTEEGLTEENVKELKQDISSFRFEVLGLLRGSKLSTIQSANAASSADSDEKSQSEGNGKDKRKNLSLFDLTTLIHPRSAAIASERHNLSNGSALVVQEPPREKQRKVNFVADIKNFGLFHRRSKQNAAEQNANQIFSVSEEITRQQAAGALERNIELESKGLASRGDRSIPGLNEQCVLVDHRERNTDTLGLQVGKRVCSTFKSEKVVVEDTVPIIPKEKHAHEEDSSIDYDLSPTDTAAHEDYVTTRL

Troponin, cardiac muscle = Troponin, cardiac muscle (Homo sapiens, UniProt P19429+P45379+P63316); assay: Fluorescence-based biochemical high throughput dose response assay for activators of the calcium sensitivity of cardiac Regulated Thin Filaments (RTF). [Related pubchem assays (depositor defined):AID493008, AID493018, AID504382, AID504383]; assay type: protein-complex assay
Cysteine protease ATG4B = Cysteine protease ATG4B (Homo sapiens, UniProt Q9Y4P1); assay type: functional;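 note: Fluorescence-based dose-response confirmation assay measuring inhibition of ATG4B activity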
Cysteine protease ATG4B, sequence (Q9Y4P1 whole entry): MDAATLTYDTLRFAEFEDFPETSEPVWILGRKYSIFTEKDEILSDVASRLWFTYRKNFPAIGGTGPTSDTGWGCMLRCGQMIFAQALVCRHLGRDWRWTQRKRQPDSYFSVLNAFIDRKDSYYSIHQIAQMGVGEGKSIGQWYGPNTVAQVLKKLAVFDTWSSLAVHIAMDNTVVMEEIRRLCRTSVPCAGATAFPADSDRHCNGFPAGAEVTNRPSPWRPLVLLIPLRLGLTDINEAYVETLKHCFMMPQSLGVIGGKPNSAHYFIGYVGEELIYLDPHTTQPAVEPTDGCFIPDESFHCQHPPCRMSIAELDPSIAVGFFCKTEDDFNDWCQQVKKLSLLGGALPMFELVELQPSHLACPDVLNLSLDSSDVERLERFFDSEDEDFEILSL

Phospholipase A2 = Phospholipase A2 (Homo sapiens, UniProt P04054); assay type: functional;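 note: confirmatory dose-response counterscreen on phospholipase A2, testing hits that came from an ultra-high-throughput screen for ATG4B inhibitors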
Phospholipase A2, sequence (P04054 whole entry, the tested form may be a part): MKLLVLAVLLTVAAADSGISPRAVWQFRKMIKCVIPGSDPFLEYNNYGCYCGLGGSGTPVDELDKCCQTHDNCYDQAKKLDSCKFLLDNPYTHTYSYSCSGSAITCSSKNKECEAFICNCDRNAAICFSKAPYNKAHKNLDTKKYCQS

CHO = CHO cell viability loss, potency – luminescence, cytotoxicity control for TLR9-MyD88 binding inhibitor project, dose response (AID 588339); assay type: functional, cell-based, hamster; details: Cricetulus griseus;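 note: CHO cells stably coexpressing TLR9 and MyD88 fusions from primary screen; compound exposure lasted 48 hours before viability readout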
[24] = molecular target: Heat shock protein HSP 90-alpha (Homo sapiens, UniProt P07900); assay type: functional, organism-based
Beta Lactamase = Beta Lactamase (Pseudomonas aeruginosa, UniProt Q932Y6); assay: BLA reporter interference, concentration series – BLA reporter cells, FRET fluorescence, artefact control for TLR9-MyD88 binding inhibitor project, dose response (AID 588341); assay type: cell-based;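 note: cell based assay in CHO-K1 cells stably expressing beta-lactamase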
[25] = molecular target: Photoreceptor-specific nuclear receptor (Homo sapiens, UniProt Q9Y5X4); assay type: functional, cell-based;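 note: CHO-S cells with Gal4-NCOR and VP16-NR2E3 two-hybrid luciferase reporter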

Beta-2 adrenergic receptor, sequence (P07550 whole entry): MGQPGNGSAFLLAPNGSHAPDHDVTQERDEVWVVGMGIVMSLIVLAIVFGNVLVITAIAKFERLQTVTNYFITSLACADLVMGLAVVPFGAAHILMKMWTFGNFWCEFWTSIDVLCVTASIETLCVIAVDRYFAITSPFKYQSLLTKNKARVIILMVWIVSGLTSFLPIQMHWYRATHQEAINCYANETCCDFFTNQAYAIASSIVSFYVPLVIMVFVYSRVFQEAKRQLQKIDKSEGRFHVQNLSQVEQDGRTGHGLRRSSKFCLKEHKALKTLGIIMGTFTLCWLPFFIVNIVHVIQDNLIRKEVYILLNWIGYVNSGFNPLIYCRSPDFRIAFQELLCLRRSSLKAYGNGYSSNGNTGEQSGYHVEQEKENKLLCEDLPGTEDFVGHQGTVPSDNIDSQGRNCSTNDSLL

COc1ccc(CNC(=O)CCCCCNc2nc(S)nc3ccccc23)cc1
EC50 [1]: 0.0255 µM (active)

CCOc1ccc(C(O)Cn2c(=N)n(CCN3CCCCC3)c3ccccc32)cc1 (configuration not stated)
IC50 [2]: 2.55 µM (active) | IC50 [3]: 5.18 µM (active)

CCN(CC)c1ccc(N)cc1
CC50 [4]: 27.9 µM (active) | AC50 [5]: 6.78 µM (active) | IC50 [6]: 4.69 µM (active) | IC50 [7]: > 100 µM (inactive) | IC50 (Prothrombin): 5.11 µM (active) | AC50 (Cytochrome P450 3A4): 25.1 µM (inconclusive) | AC50 [8]: 10 µM (inconclusive)

CCOc1ccc(-c2noc(CCC(=O)O)n2)cc1
EC50 [9]: 6.28 µM (active) | EC50 [10]: 15 µM (active) | EC50 [11]: 7.97 µM (active) | IC50 [12]: > 100 µM (inactive) | IC50 [13]: > 100 µM (not active) | AC50 [14]: 2.61 µM (active) | IC50 [15]: > 80 µM (inactive) | IC50 (HEK293): > 80 µM (inactive)

COc1ccc(-n2c3c(cc(C(=O)NNc4ccccc4C)c2=O)C(=O)CC(C)(C)C3)cc1
EC50 [16]: > 92.5 µM (inactive) | EC50 (Mu-type opioid receptor): 14.5 µM (inactive) | EC50 [17]: > 92.5 µM (inactive)

Cc1cnc(C(=O)OCc2nc(O)c3sccc3n2)cn1
IC50 [18]: 7.9 µM (active)

CCC(C)OC(=O)C[N+](C)(C)CCOC1CC2CCC1(C)C2(C)C (configuration not stated)
EC50 [19]: > 150 µM (inconclusive) | IC50 [2]: 0.418 µM (active) | IC50 [3]: < 0.25 µM (active) | EC50 [20]: 4.36 µM (active) | EC50 [21]: 0.341 µM (active) | EC50 [22]: > 60 µM (not active)

OCC1(CC2CCCCO2)CCN(Cc2ccccc2-c2ccco2)CC1 (configuration not stated)
EC50 [23]: 0.668 µM (active) | EC50 [16]: > 92.4 µM (inactive) | EC50 (Mu-type opioid receptor): > 92.4 µM (inactive) | EC50 [17]: > 92.4 µM (inactive)

Fc1ccc(CN=C(S)NCc2ccc(F)cc2)cc1
EC50 (Troponin, cardiac muscle): > 71.5 µM (inactive) | IC50 (Cysteine protease ATG4B): 12.3 µM (active) | IC50 (Phospholipase A2): 9.33 µM (active)

Cc1sc(NC(=O)c2ccccc2)c(C(=O)c2ccccc2)c1C
IC50 (Cysteine protease ATG4B): 15.3 µM (active) | IC50 (Phospholipase A2): 9.18 µM (active)

O=c1c(Br)ccc(Br)cc1Br
IC50 (CHO): 0.558 µM (active) | AC50 [24]: 0.438 µM (active) | IC50 (Beta Lactamase): 6.14 µM (active) | IC50 [25]: 3.72 µM (active)

CCC(C)(C)C(=O)O [DIMEBUTIC ACID]
AC50 [8]: 12.6 µM (inconclusive)
